Data from patent US12077503B2, “Substituted cyclic amides and their use as herbicides” (FMC CORPORATION, priority 2015, dated 2024).
Like-named read-outs stand apart in the source and are kept apart here.

How the values were obtained:
Assay in all cases: Test A preemergence
Format in all cases: in vivo
Kochia (Kochia scoparia) = settings: Bassia scoparia, pre-emergence, 240 h; for pest or weed control at 125 g/ha: 125 g ai/ha; for pest or weed control at 500 g/ha: 500 g ai/ha
Procedure, shortened: (§1)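 Visual injury scores from 0, no effect, to 100, complete control, were assigned versus untreated controls roughly 10 d after treatment in the greenhouse. Test chemicals, formulated with surfactant in a non-phytotoxic solvent, were applied to planted seeds as a preemergence soil spray or postemergence to one- to two-leaf plants 2 to 10 cm tall, in loam–sand soil.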

[1] = system: barnyardgrass (Echinochloa crus-galli); settings: Echinochloa crus-galli, pre-emergence, 240 h; for pest or weed control at 125 g/ha: 125 g ai/ha; for pest or weed control at 500 g/ha: 500 g ai/ha
Procedure, shortened: as §1

[2] = system: giant foxtail (Setaria faberii); settings: Setaria faberi, pre-emergence, 240 h; for pest or weed control at 125 g/ha: 125 g ai/ha; for pest or weed control at 500 g/ha: 500 g ai/ha
Procedure, shortened: as §1

[3] = system: pigweed (Amaranthus retroflexus); settings: Amaranthus retroflexus, pre-emergence, 240 h; for pest or weed control at 125 g/ha: 125 g ai/ha; for pest or weed control at 500 g/ha: 500 g ai/ha
[4] = system: ragweed (common ragweed, Ambrosia elatior); settings: Ambrosia artemisiifolia, pre-emergence, 240 h; for pest or weed control at 125 g/ha: 125 g ai/ha; for pest or weed control at 500 g/ha: 500 g ai/ha
Procedure, shortened: as §1

[5] = system: ryegrass, Italian (Italian ryegrass, Lolium multiflorum); settings: Lolium multiflorum, pre-emergence, 240 h; for pest or weed control at 125 g/ha: 125 g ai/ha; for pest or weed control at 500 g/ha: 500 g ai/ha
Procedure, shortened: as §1

[6] = preemergence, visual rating after approx. 10 d, 0 to 100 scale where 0 is no effect and 100 is complete control, read-out: Plant response rating, Kochia
[7] = preemergence, 0 to 100 scale, 0 = no effect, 100 = complete control, read-out: Plant response rating, Kochia
[8] = preemergence, visual rating after approx. 10 d, 0 to 100 scale where 0 is no effect and 100 is complete control, read-out: Plant response rating, Barnyardgrass
[9] = preemergence, 0 to 100 scale, 0 = no effect, 100 = complete control, read-out: Plant response rating, Barnyardgrass
[10] = preemergence, visual rating after approx. 10 d, 0 to 100 scale where 0 is no effect and 100 is complete control, read-out: Plant response rating, Foxtail, Giant
[11] = preemergence, 0 to 100 scale, 0 = no effect, 100 = complete control, read-out: Plant response rating, Foxtail, Giant
[12] = preemergence, visual rating after approx. 10 d, 0 to 100 scale where 0 is no effect and 100 is complete control, read-out: Plant response rating, Pigweed
[13] = preemergence, 0 to 100 scale, 0 = no effect, 100 = complete control, read-out: Plant response rating, Pigweed
[14] = preemergence, visual rating after approx. 10 d, 0 to 100 scale where 0 is no effect and 100 is complete control, read-out: Plant response rating, Ragweed
[15] = preemergence, 0 to 100 scale, 0 = no effect, 100 = complete control, read-out: Plant response rating, Ragweed
[16] = preemergence, visual rating after approx. 10 d, 0 to 100 scale where 0 is no effect and 100 is complete control, read-out: Plant response rating, Ryegrass, Italian
[17] = preemergence, 0 to 100 scale, 0 = no effect, 100 = complete control, read-out: Plant response rating, Ryegrass, Italian
[18] = preemergence, 0 to 100 scale where 0 is no effect and 100 is complete control, read-out: Kochia plant response rating
[19] = preemergence, 0 to 100 scale where 0 is no effect and 100 is complete control, read-out: Barnyardgrass plant response rating
[20] = preemergence, 0 to 100 scale where 0 is no effect and 100 is complete control, read-out: Foxtail, Giant plant response rating
[21] = preemergence, 0 to 100 scale where 0 is no effect and 100 is complete control, read-out: Pigweed plant response rating
[22] = preemergence, 0 to 100 scale where 0 is no effect and 100 is complete control, read-out: Ragweed plant response rating

SMILES | pest or weed control at 125 g/ha (Kochia (Kochia scoparia); [6]) | pest or weed control at 500 g/ha (Kochia (Kochia scoparia); [7]) | pest or weed control at 125 g/ha [1, 8] | pest or weed control at 500 g/ha [1, 9] | pest or weed control at 125 g/ha [2, 10] | pest or weed control at 500 g/ha [2, 11] | pest or weed control at 125 g/ha [3, 12] | pest or weed control at 500 g/ha [3, 13] | pest or weed control at 125 g/ha [4, 14] | pest or weed control at 500 g/ha [4, 15] | pest or weed control at 125 g/ha [5, 16] | pest or weed control at 500 g/ha [5, 17] | pest or weed control at 500 g/ha (Kochia (Kochia scoparia); [18]) | pest or weed control at 500 g/ha [1, 19] | pest or weed control at 500 g/ha [2, 20] | pest or weed control at 500 g/ha [3, 21] | pest or weed control at 500 g/ha [4, 22] | also measured
Cc1ccc([C@H]2CN(C)C(=O)[C@@H]2C(=O)Nc2ccccc2S(C)(=O)=O)cc1C [Compound 734] | 20% | 90% | 90% | 100% | 90% | 100% | 20% | 80% | 20% | 50% | 40% | 90% |  |  |  |  |  | 
Cc1c(F)ccc([C@H]2CNC(=O)[C@@H]2C(=O)Nc2ccccc2F)c1F [Compound 1326] |  |  |  |  |  |  |  |  |  |  |  |  | 100% | 90% | 90% | 0% | 0% | pest or weed control at 125 g/ha (Kochia (Kochia scoparia); Preemergence, 0 to 100 scale (0 no effect, 100 complete control), read-out: Plant response rating, Kochia): 30%; pest or weed control at 125 g/ha ([1]; Preemergence, 0 to 100 scale (0 no effect, 100 complete control), read-out: Plant response rating, Barnyardgrass): 80%; pest or weed control at 125 g/ha ([2]; Preemergence, 0 to 100 scale (0 no effect, 100 complete control), read-out: Plant response rating, Foxtail, Giant): 60%; pest or weed control at 125 g/ha ([3]; Preemergence, 0 to 100 scale (0 no effect, 100 complete control), read-out: Plant response rating, Pigweed): 0%; pest or weed control at 125 g/ha ([4]; Preemergence, 0 to 100 scale (0 no effect, 100 complete control), read-out: Plant response rating, Ragweed): 0%; pest or weed control at 125 g/ha ([5]; Preemergence, 0 to 100 scale (0 no effect, 100 complete control), read-out: Plant response rating, Ryegrass, Italian): 20%
CN1C[C@H](c2ccc(C(F)F)cc2)[C@@H](C(=O)Nc2ccc(F)c(F)c2F)C1=O [Compound 1260] |  |  |  |  |  |  |  |  |  |  |  |  | 90% | 100% | 90% | 90% | 90% | pest or weed control at 125 g/ha (Kochia (Kochia scoparia); preemergence, visual injury rating, 0 to 100 scale where 0 is no effect and 100 is complete control, approximately 10 d, read-out: Kochia plant response rating): 80%; pest or weed control at 125 g/ha ([1]; preemergence, visual injury rating, 0 to 100 scale where 0 is no effect and 100 is complete control, approximately 10 d, read-out: Barnyardgrass plant response rating): 90%; pest or weed control at 125 g/ha ([2]; preemergence, visual injury rating, 0 to 100 scale where 0 is no effect and 100 is complete control, approximately 10 d, read-out: Foxtail, Giant plant response rating): 90%; pest or weed control at 125 g/ha ([3]; preemergence, visual injury rating, 0 to 100 scale where 0 is no effect and 100 is complete control, approximately 10 d, read-out: Pigweed plant response rating): 90%; pest or weed control at 125 g/ha ([4]; preemergence, visual injury rating, 0 to 100 scale where 0 is no effect and 100 is complete control, approximately 10 d, read-out: Ragweed plant response rating): 80%; pest or weed control at 125 g/ha ([5]; preemergence, visual injury rating, 0 to 100 scale where 0 is no effect and 100 is complete control, approximately 10 d, read-out: Ryegrass, Italian plant response rating): 50%; pest or weed control at 500 g/ha ([5]; preemergence, 0 to 100 scale where 0 is no effect and 100 is complete control, read-out: Ryegrass, Italian plant response rating): 60%
COc1ccc([C@H]2CNC(=O)[C@@H]2C(=O)Nc2ccccc2S(C)(=O)=O)cc1F [Compound 721] | 0% | 0% | 30% | 80% | 30% | 90% | 0% | 0% | 0% | 50% | 0% | 20% |  |  |  |  |  | 
